Several values for one entry are separate records, joined by “and”; a condition that tells them apart may be missing. Equal values may be shown once.

Data on eleven compounds can be found in PubChem BioAssay AID1918935 (Molecular Pharmacology Branch, DTP, NCI, 2023).

The test has as its system 324938-238-R-J1-PDC complex spheroid viability. The test is described as follows: Anticancer human tumor 324938-238-R-J1-PDC patient-derived bladder carcinoma cell line growth inhibition. The note with it: for viability, T/C: stronger effect = lower value; for IC50: curve of compound. The text has this: Multicellular complex tumor spheroid response to LSD1 Inhibitor Iadademstat in combination with a variety of drugs and investigational agents in selected tumor cell lines
The current study was undertaken to assess response to LSD1 inhibitors in combination with standard-of-care drugs and investigational agents in solid tumor complex spheroid models as well as in the K-562 leukemia. Complex spheroids include a stromal component modeled by human endothelial cells (HUVEC) and fibroblasts modeled by human mesenchymal stem cells (MSCs). The concentration ranges selected for each drug and investigational agent were based upon clinically achievable concentrations if the clinical Cmax of the agent was known.
Compounds. The drugs and investigational agents used in this study are listed on Table 1. All of the agents used, including staurosporine (NSC755774) and gemcitabine (NSC613327), were obtained from the Developmental Therapeutics Program, NCI. FDA-approved anticancer drugs are available from the NCI at http://dtp.nci.nih.gov/branches/dscb/oncology_drugset_explanation.html. Drugs and investigational agents were >95% pure by proton nuclear magnetic resonance (NMR) and liquid chromatography/mass spectrometry (LC/MS). Stock solutions were prepared at 400x in DMSO, stored at -70 degrees C, and diluted in fresh medium prior to their use. The final concentration of DMSO in cell culture wells never exceeded 0.25% (v/v). The FDA-approved anticancer drug set is available from the Developmental Therapeutics Program at https://dtp.cancer.gov/organization/dscb/obtaining/available_plates.htm. All drugs and investigational agents were tested over a range starting from a high concentration at or near the clinical Cmax and decreasing in half-log increments. If the clinical Cmax for an agent had not been determined, the highest concentration tested was 10 microM.
Cell Lines. The patient-derived cancer cell (PDC) lines: 292921-168-R-J2-PDC, K24384-001-R-PDC, and 521955-158-R2-J5-PDC pancreatic carcinomas, 556581-035-R-J1 ovarian carcinoma, 324938-238-R-J1-PDC, 855422-203-R-J1-PDC and 883617-216-R-J1-PDC urothelial bladder carcinomas, 743489-274-T-PDC renal cell carcinoma, 138582-R-J1 Merkel cell tumor, K60290-347-R-J1 and K57222-313-R-J1-PDC glioblastomas, 653999-131-R-J2-PDC, LG0703-F948-PDC, and 349418-098-R-PDC non-small cell lung carcinomas, 885512-296-R-J2-PDC, 171881-019-R-J1-PDC breast carcinomas and 186277-243-T-J2-PDC and 233499-124-R-J2-PDC colon carcinomas were obtained from the NCI Patient-Derived Models Repository (PDMR, https://pdmr.cancer.gov). The established cell lines NCI/ADR-RES (RRID:CVCL_14520 and OVCAR-5 (RRID:CVCL_1628) ovarian carcinomas, 786-O (RRID:CVCL_1051) and A498 (RRID:CVCL_A498) renal cell carcinoma, NCI-H211 (ATCC, cat. CRL-5824; RRID:CVCL_1529), NCI-H196 (ATCC, cat. CRL-5823, RRID:CVCL_1509), SW 1271 (ATCC, cat. CRL-2177, RRID:CVCL_1716) and NCI-H1876 (ATCC, cat. CRL-5902, RRID:CVCL_1503) small cell lung carcinomas, MDA-MB-231 (RRID:CVCL_0062) and MDA-MB-468 (RRID:CVCL_0419)breast carcinomas (10-12). Pooled donor human umbilical vein endothelial cells (HUVEC, Lonza, cat. CC-2519) and human mesenchymal stem cells (hMSC, Lonza, cat. PT-2501) were purchased from Lonza (Walkersville, MD).
Cell Culture. All cells were maintained in an incubator at 37 degrees C and 5% CO2 with 95% humidity. The PDC lines were cultured according to standard operating procedures established by the NCI PDMR (https://pdmr.cancer.gov). Briefly all PDCs were thawed and cultured in Matrigel-coated flasks prepared with a working solution of 1X Ham's F-12 nutrient mix, without supplementation (Invitrogen, Waltham, MA, cat. 11765054), 100 U/mL penicillin-streptomycin (Invitrogen, cat. 15140122), and 2.5% Matrigel (Corning Inc., Corning, NY, cat. 354248) for the first three passages. […]
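Further: spheroids also contain HUVEC and human MSCs and agents combined with iadademstat; spheroids exposed to agents for 7 days before readout.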

The viability, T/C is the result in the treated group divided by that in the control group, in per cent. What is called IC50 is the concentration at which inhibition is half-maximal. For the compound `CC(C)CC(NC(=O)C(Cc1ccccc1)NC(=O)c1cnccn1)B(O)O` (configuration not stated), the IC50 is 0.643 nM and 0.508 nM. Further, the viability, T/C (compound 0.000316 µM) was 95.8% and 79.7%. Besides, for the setting “compound 0.001 µM”, the viability, T/C is 21.5% and 7.74%. The viability, T/C (compound 0.00316 µM) was 0.55% and 0.19%. The viability, T/C (compound 0.01 µM) is 0.21% and 1.23%. For the same compound, the viability, T/C (compound 0.0316 µM) was 0.46% and 0.17%. Also, under “compound 0.1 µM”, the viability, T/C is 0.24% and 0.28%.
As to `CC(C)CC(NC(=O)CNC(=O)c1cc(Cl)ccc1Cl)B1OC(=O)CC(CC(=O)O)(C(=O)O)O1` (configuration not stated), the IC50 was 2.58 nM and 1.79 nM. Also, the viability, T/C (compound 0.000316 µM) is 104% and 111%. In addition, for the setting “compound 0.001 µM”, the viability, T/C is 106% and 77.7%. In addition, the viability, T/C (compound 0.00316 µM) is 38.2% and 23.3%. Besides, the viability, T/C (compound 0.01 µM) was 5.09% and 2.42%. Also, the viability, T/C (compound 0.0316 µM) is 0.23% and 0.77%. Further, the viability, T/C (compound 0.1 µM) was 0.23% and 0.24%.
Regarding `CC1COCCN1c1cc(-c2ccnn2C)c2ccnc(-c3ccn[nH]3)c2n1` (configuration not stated), the IC50 was 51.4 nM and 31.1 nM. For the same compound, the viability, T/C (compound 0.00316 µM) is 101%. Also, the viability, T/C (compound 0.01 µM) is 103% and 83.1%. Besides, under “compound 0.0316 µM”, the viability, T/C is 60.4% and 48.2%. Besides, the viability, T/C (compound 0.1 µM) was 33.5% and 25.6%. Further, for the setting “compound 0.316 µM”, the viability, T/C was 18.6% and 14.7%. For the same compound, the viability, T/C (compound 1 µM) was 13.1% and 10.3%.
Regarding `CC[C@@]1(O)C(=O)OCc2c1cc1n(c2=O)Cc2cc3c(CN(C)C)c(O)ccc3nc2-1`, the IC50 was 2.23 nM and 2 nM. Under “compound 0.000316 µM”, the viability, T/C was 101% and 94.5%. Besides, under “compound 0.001 µM”, the viability, T/C was 93% and 83.5%. Besides, the viability, T/C (compound 0.00316 µM) was 31.2% and 27.9%. Moreover, the viability, T/C (compound 0.01 µM) is 8.43% and 7.17%. Further, under “compound 0.0316 µM”, the viability, T/C was 8.29% and 8.05%. In addition, where the note is “compound 0.1 µM”, the viability, T/C was 8.03% and 7.71%.
Consider `CCc1c2c(nc3ccc(O)cc13)-c1cc3c(c(=O)n1C2)COC(=O)[C@]3(O)CC`, for which the IC50 is under 0.949 nM. In addition, under “compound 0.000949 µM”, the viability, T/C is 7.99% and 9.82%. Where the note is “compound 0.003 µM”, the viability, T/C is 9.25% and 10.8%. Also, for the setting “compound 0.00949 µM”, the viability, T/C was 6.79% and 6.81%. In addition, the viability, T/C (compound 0.03 µM) was 2.02% and 1.48%. Where the note is “compound 0.0949 µM”, the viability, T/C is 0.16% and 0.66%. In addition, under “compound 0.3 µM”, the viability, T/C is 0.2% and 0.27%.
For `COc1cc(Nc2ncc3c(n2)-c2ccc(Cl)cc2C(c2c(F)cccc2OC)=NC3)ccc1C(=O)O`, the IC50 was 21.2 nM and 13.8 nM. Moreover, the viability, T/C (compound 0.00316 µM) was 91.2% and 90.6%. For the same compound, the viability, T/C (compound 0.01 µM) is 76.9% and 59%. The viability, T/C (compound 0.0316 µM) was 35.7% and 26.8%. In addition, the viability, T/C (compound 0.1 µM) was 19.6% and 15.6%. The viability, T/C (compound 0.316 µM) was 18.6% and 13.9%. Moreover, the viability, T/C (compound 1 µM) is 15.3% and 14.3%.
Regarding `Cn1ncnc1C1c2n[nH]c(=O)c3cc(F)cc(c23)NC1c1ccc(F)cc1` (configuration not stated), the IC50 was over 100 nM. For the same compound, the viability, T/C (compound 0.000316 µM) is 99.3% and 106%. Moreover, the viability, T/C (compound 0.001 µM) was 102% and 99.5%. Also, the viability, T/C (compound 0.00316 µM) was 99.7% and 90.2%. Further, the viability, T/C (compound 0.01 µM) was 92.3% and 94.8%. Besides, the viability, T/C (compound 0.0316 µM) is 82.6% and 76%. Where the note is “compound 0.1 µM”, the viability, T/C was 68.6% and 58.2%.
As to `Nc1ccn(C2OC(CO)C(O)C2(F)F)c(=O)n1` (configuration not stated), the IC50 was under 0.949 nM. Further, the viability, T/C (compound 0.000949 µM) was 11.4% and 15.4%. The viability, T/C (compound 0.003 µM) was 8.21% and 9.09%. Also, the viability, T/C (compound 0.00949 µM) is 7.58% and 8.65%. Moreover, the viability, T/C (compound 0.03 µM) is 6.97% and 8.11%. Also, the viability, T/C (compound 0.0949 µM) is 5.95% and 6.14%. Besides, the viability, T/C (compound 0.3 µM) was 5.04% and 6.97%.
Consider `Nc1ncn(C2CC(O)C(CO)O2)c(=O)n1` (configuration not stated), for which the IC50 was 927 nM and 722 nM. The viability, T/C (compound 0.00316 µM) was 98.2% and 98.1%. Further, the viability, T/C (compound 0.01 µM) is 90.8% and 96.7%. Moreover, for the setting “compound 0.0316 µM”, the viability, T/C is 81% and 89.9%. Also, the viability, T/C (compound 0.1 µM) is 75.9% and 69.5%. The viability, T/C (compound 0.316 µM) is 62.2% and 57.2%. In addition, the viability, T/C (compound 1 µM) is 48.6% and 46.9%.
On to `Nc1ncn(C2CC(O)C(CO)S2)c(=O)n1` (configuration not stated), for which the IC50 was 32.8 nM and 24.8 nM. Under “compound 0.000949 µM”, the viability, T/C was 97.4% and 106%. Further, the viability, T/C (compound 0.003 µM) is 88.2% and 90.7%. Under “compound 0.00949 µM”, the viability, T/C is 72.2% and 69.6%. Further, for the setting “compound 0.03 µM”, the viability, T/C is 51.5% and 46.5%. Also, the viability, T/C (compound 0.0949 µM) is 33.2% and 27.5%. Moreover, the viability, T/C (compound 0.3 µM) is 22.2% and 17.4%.
For the compound `O=C(C=Cn1cnc(-c2cc(C(F)(F)F)cc(C(F)(F)F)c2)n1)NNc1cnccn1`, the IC50 is 8.59 nM and 4.69 nM. The viability, T/C (compound 0.00316 µM) was 85.4% and 60.8%. The viability, T/C (compound 0.01 µM) was 44.7% and 28.6%. Moreover, the viability, T/C (compound 0.0316 µM) was 17.7% and 14.8%. The viability, T/C (compound 0.1 µM) was 7.73% and 4.52%. The viability, T/C (compound 0.316 µM) was 4.23% and 3.45%. In addition, the viability, T/C (compound 1 µM) is 2.35% and 1.64%.
